“And” between values parts separate entries of the source, which are not always exact repeats. Identical values can stand only once.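 Results reflect a 48-hour exposure of cells in 96-well plates to compound at five concentrations. The concentration for 50% growth inhibition is given as GI50. TGI is the concentration that stops growth completely.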
What was measured:
Assay in all cases: inhibition of tumour cell growth, NCI panel, 48 h
UACC-62 melanoma = test system: UACC-62 melanoma
MDA-MB-435 = test system: MDA-MB-435
OVCAR-8 ovarian = test system: OVCAR-8 ovarian
U251 CNS = test system: U251 CNS
MALME-3M melanoma = test system: MALME-3M melanoma
UO-31 renal = test system: UO-31 renal
SK-MEL-5 melanoma = test system: SK-MEL-5 melanoma
MDA-MB-231 breast = test system: MDA-MB-231 breast
PC-3 prostate = test system: PC-3 prostate
HCT-15 colon = test system: HCT-15 colon

SMILES | GI50 (UACC-62 melanoma) | TGI (UACC-62 melanoma) | GI50 (MDA-MB-435) | TGI (MDA-MB-435) | GI50 (OVCAR-8 ovarian) | TGI (OVCAR-8 ovarian) | GI50 (U251 CNS) | TGI (U251 CNS) | GI50 (MALME-3M melanoma) | TGI (MALME-3M melanoma) | GI50 (UO-31 renal) | TGI (UO-31 renal) | GI50 (SK-MEL-5 melanoma) | TGI (SK-MEL-5 melanoma) | GI50 (MDA-MB-231 breast) | TGI (MDA-MB-231 breast) | GI50 (PC-3 prostate) | TGI (PC-3 prostate) | GI50 (HCT-15 colon) | TGI (HCT-15 colon)
O=C(OCc1ccc2c(Cl)cc(Cl)c(O)c2n1)c1cc2ccccc2[nH]1 | 478 nM | 1700 nM | 318 nM | 1040 nM | 818 nM | 3050 nM | 1610 nM | 3220 nM | 1260 nM | 2600 nM | 164 nM | 331 nM | 1330 nM | 2630 nM | 422 nM | 1520 nM | 407 nM | 936 nM | 217 nM | 517 nM
CCc1nc(Cl)nc(Cl)c1Cl | – | 19000 nM | – | 6530 nM | – | 5340 nM | – | 3320 nM | – | 1570 nM | – | 674 nM | – | 7710 nM | – | 13100 nM | – | 6250 nM | – | 1880 nM
CCCSC1=NC2C(N(CC)C(=O)N2CC)N1/N=C/C=C/c1ccccc1[N+](=O)[O-] (stereo not given) | 2810 nM | > 100000 nM | 2020 nM | 7240 nM | 3760 nM | > 100000 nM | 3420 nM | > 100000 nM | 4740 nM | > 100000 nM | 3860 nM | > 100000 nM | 2760 nM | 10300 nM | 2350 nM | 7440 nM | 3330 nM | > 100000 nM | 2940 nM | > 100000 nM
C#Cc1cccc(Nc2nc3ccc([N+](=O)[O-])cc3nc2Nc2cccc(C#C)c2)c1 | 302 nM | 1200 nM | 265 nM | 838 nM | 303 nM | 1460 nM | 180 nM | 482 nM | 235 nM | 614 nM | 321 nM | 1140 nM | 181 nM | 349 nM | 281 nM | 807 nM | 220 nM | 1170 nM | 197 nM | 716 nM
COc1cccc2[nH]c(-c3ccccn3)nc12 | – | > 100000 nM | – | > 100000 nM | – | > 100000 nM | – | > 100000 nM | – | > 100000 nM | – | > 100000 nM | – | > 100000 nM | – | > 100000 nM | – | > 100000 nM | – | > 100000 nM
COc1cc2nc3cc([N+](=O)[O-])ccc3c(NCCCNCC(C)(C)O)c2cc1OC | 214 nM | 580 nM | 400 nM | 1550 nM | 304 nM | 1820 nM | 303 nM | 1010 nM | 315 nM | 872 nM | 1460 nM | 5140 nM | 520 nM | 1760 nM | 222 nM | 900 nM | 322 nM | 1110 nM | 1300 nM | 8290 nM
NC(=O)/C=C/NC(=O)/C=N\O | – | > 100000 nM | – | > 100000 nM | – | > 100000 nM | – | > 100000 nM | – | > 100000 nM | – | > 100000 nM | – | > 100000 nM | – | > 100000 nM | – | > 100000 nM | – | > 100000 nM
CC1=C[S+](c2ccccc2)c2cccc3cc4ccccc4c1c23 (stereo not given) | 305 nM | 1640 nM | 276 nM | 1610 nM | 158 nM | 3730 nM | 45.8 nM | 337 nM | 372 nM | 2220 nM | 312 nM | 7640 nM | 247 nM | 776 nM | 1690 nM | 4480 nM | 247 nM | 12100 nM | 378 nM | 8440 nM
Cc1nc(N)sc1C(=O)Nc1cc(C(=O)NCCCN(C)C)n(C)c1 | > 100000 nM | > 100000 nM | > 100000 nM | > 100000 nM | > 100000 nM | > 100000 nM | > 100000 nM | > 100000 nM | > 100000 nM | > 100000 nM | > 100000 nM | > 100000 nM | > 100000 nM | > 100000 nM | > 100000 nM | > 100000 nM | > 100000 nM | > 100000 nM | > 100000 nM | > 100000 nM
COc1ccccc1S(=O)(=O)Nc1ccc2c(c1)CN(C)C(=O)N2 | 1260 nM and 1120 nM | > 100000 nM | 4240 nM and 2630 nM | > 100000 nM | 10100 nM and 10800 nM | > 100000 nM | 14100 nM and 13200 nM | > 100000 nM | 4350 nM and 1750 nM | > 100000 nM | 1410 nM and 1050 nM | > 100000 nM | 3880 nM and 4420 nM | > 100000 nM | 4280 nM and 7340 nM | > 100000 nM | 10700 nM and 16300 nM | > 100000 nM | 3790 nM and 3320 nM | > 100000 nM
O=C(CCCCCCSc1nc(-c2ccc(Cl)cc2)cc(-c2ccc(Cl)cc2)n1)NO | 1260 nM | 4180 nM | 1860 nM | 13600 nM | 1430 nM | 8100 nM | 1630 nM | 6080 nM | 1160 nM | 4450 nM | 735 nM | 2420 nM | 1190 nM | 2740 nM | 2150 nM | 13300 nM | 1540 nM | 16300 nM | 1760 nM | > 50000 nM
COc1ccc(-c2csc(-c3cc(Cl)cc(Cl)c3Cl)n2)cc1 | 41900 nM | > 100000 nM | 21800 nM | > 100000 nM | 48400 nM | > 100000 nM | 60200 nM | > 100000 nM | 81100 nM | > 100000 nM | > 100000 nM | > 100000 nM | 32200 nM | > 100000 nM | 60000 nM | > 100000 nM | 52200 nM | > 100000 nM | 73500 nM | > 100000 nM
C=C(C)[C@@H]1CC[C@]2(COC3CCCCO3)CC[C@]3(C)[C@H](CC[C@@H]4[C@@]5(C)C=C(C=O)C(=O)C(C)(C)[C@@H]5CC[C@]43C)[C@@H]12 (stereo not given in full) | 1270 nM | 3550 nM | 1050 nM | 2320 nM | 1490 nM | 3860 nM | 1180 nM | 2710 nM | 1660 nM | 3450 nM | 1360 nM | 2740 nM | 1580 nM | 2930 nM | 1810 nM | 3820 nM | 1100 nM | 2710 nM | 1770 nM | 3970 nM
